Results taken from patent US20250235543A1, “MODIFIED PROTEINS AND PROTEIN DEGRADERS” (Cullgen (Shanghai), Inc., priority 2021, published 2025).
Where two headings read alike, the source gives them in different places.

How the values were obtained:
[1] = system: cyclin D1; assay: Cyclin D1 percentage degradation in Calu-1 cells (immunoblotting); type: cell-based; settings: 200 nM, 16 hours
In short: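 Cells were rinsed once in cold PBS and lysed in cold RIPA buffer containing protease and phosphatase inhibitors, with gentle agitation at 4° C. for 30 min. Lysates were spun at 13,000 rpm for 10 min at 4° C., protein was measured by BCA, and samples were boiled in Laemmli buffer at 99° C. for 5 min before SDS-PAGE immunoblotting.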

[2] = target: T1, CDK4 (Homo sapiens, UniProt P11802); assay: CDK4 percentage degradation in Calu-1 cells (immunoblotting); type: cell-based; settings: read-out: CDK4 Degradation (200 nM)
T1 construct: endogenous in cells; host or cells: Calu-1
T1 sequence (P11802 2-303 limits assumed): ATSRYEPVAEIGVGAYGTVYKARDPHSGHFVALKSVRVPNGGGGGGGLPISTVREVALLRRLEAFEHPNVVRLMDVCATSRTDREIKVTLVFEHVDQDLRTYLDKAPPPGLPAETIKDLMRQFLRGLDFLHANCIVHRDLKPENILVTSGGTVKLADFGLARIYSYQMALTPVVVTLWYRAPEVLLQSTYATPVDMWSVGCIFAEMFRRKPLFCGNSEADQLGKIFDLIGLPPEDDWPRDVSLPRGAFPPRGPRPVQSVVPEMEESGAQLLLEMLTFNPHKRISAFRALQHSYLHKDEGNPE
T1 sequence (P24385 whole entry partner): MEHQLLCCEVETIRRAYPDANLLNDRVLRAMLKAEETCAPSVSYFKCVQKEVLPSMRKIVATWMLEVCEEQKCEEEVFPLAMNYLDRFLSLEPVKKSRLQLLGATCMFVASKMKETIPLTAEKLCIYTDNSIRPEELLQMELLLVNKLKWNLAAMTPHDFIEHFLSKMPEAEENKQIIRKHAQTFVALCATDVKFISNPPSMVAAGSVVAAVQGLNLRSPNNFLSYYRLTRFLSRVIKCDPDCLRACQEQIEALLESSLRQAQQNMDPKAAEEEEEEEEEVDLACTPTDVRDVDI
T1 sequence (Q16531 2-1140 limits assumed, further chain): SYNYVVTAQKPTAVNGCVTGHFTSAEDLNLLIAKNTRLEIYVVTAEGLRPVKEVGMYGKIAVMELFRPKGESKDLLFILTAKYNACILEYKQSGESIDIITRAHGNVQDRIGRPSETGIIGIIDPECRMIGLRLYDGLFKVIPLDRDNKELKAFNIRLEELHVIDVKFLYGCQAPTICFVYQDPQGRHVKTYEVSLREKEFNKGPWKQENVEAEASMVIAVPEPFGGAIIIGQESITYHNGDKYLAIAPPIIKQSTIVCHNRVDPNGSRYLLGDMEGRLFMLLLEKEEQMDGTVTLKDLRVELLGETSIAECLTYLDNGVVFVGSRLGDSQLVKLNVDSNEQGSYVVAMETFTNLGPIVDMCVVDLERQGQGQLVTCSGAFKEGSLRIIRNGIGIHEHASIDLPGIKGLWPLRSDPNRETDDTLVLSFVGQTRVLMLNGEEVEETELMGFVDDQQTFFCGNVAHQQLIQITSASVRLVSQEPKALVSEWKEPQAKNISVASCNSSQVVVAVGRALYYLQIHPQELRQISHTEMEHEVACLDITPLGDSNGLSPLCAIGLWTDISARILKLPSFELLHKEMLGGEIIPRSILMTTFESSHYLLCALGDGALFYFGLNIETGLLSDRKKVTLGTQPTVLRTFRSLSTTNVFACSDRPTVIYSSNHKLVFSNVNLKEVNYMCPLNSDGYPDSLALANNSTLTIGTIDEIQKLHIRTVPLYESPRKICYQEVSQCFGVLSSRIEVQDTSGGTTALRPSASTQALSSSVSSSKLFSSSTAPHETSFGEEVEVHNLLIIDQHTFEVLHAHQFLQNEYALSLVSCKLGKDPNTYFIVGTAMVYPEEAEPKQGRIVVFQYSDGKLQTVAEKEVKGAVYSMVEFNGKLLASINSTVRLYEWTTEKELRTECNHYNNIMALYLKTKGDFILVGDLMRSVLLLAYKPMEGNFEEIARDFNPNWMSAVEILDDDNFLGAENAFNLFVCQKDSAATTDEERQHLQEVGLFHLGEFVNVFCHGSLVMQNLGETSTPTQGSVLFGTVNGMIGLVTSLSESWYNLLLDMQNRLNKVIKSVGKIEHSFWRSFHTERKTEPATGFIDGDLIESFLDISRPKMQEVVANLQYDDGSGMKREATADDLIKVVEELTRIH
In short: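 Cultured cells were rinsed once in cold PBS and lysed in cold RIPA buffer containing protease and phosphatase inhibitors, with gentle agitation at 4° C. for 30 min. Lysates were centrifuged at 13,000 rpm for 10 min at 4° C., and protein was quantified by BCA. Samples were then separated by SDS-PAGE, detected with ECL, and the CDK4 bands quantified in Image Lab.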

SMILES	inhibition at 0.2 µM ([2]; Calu-1 cells, 200 nM, 16 hours) [%]	CyclinD1 Degradation (200 nM) [1]	inhibition at 0.2 µM ([2]; Calu-1, 16 h) [%]
CC(=O)c1c(C)c2cnc(Nc3ccc(N4CCN(CC(=O)NCCC(=O)Nc5ccccc5C(=O)Nc5nc(C)c(C)s5)CC4)cn3)nc2n(C2CCCC2)c1=O [CPD-146, 2-(3-(2-(4-(6-((6-Acetyl-8-cyclopentyl-5-methyl-7-oxo-7,8-dihydropyrido[2,3-d]pyrimidin-2-yl)amino)pyridin-3-yl)piperazin-1-yl)acetamido)propanamido)-N-(4,5-dimethylthiazol-2-yl)benzamide]	–	D (protein percentage degradation <30%)	< 30
CC(=O)c1c(C)c2cnc(Nc3ccc(N4CCN(C(=O)CCC(=O)Nc5ccccc5C(=O)Nc5nc(C)c(C)s5)CC4)cn3)nc2n(C2CCCC2)c1=O [CPD-153, 2-(4-(4-(6-((6-Acetyl-8-cyclopentyl-5-methyl-7-oxo-7,8-dihydropyrido[2,3-d]pyrimidin-2-yl)amino)pyridin-3-yl)piperazin-1-yl)-4-oxobutanamido)-N-(4,5-dimethylthiazol-2-yl)benzamide]	–	D (protein percentage degradation <30%)	< 30
CC(=O)c1c(C)c2cnc(Nc3ccc(N4CCN(C(=O)CCCCC(=O)Nc5ccccc5C(=O)Nc5nc(C)c(C)s5)CC4)cn3)nc2n(C2CCCC2)c1=O [CPD-156, 2-(6-(4-(6-((6-Acetyl-8-cyclopentyl-5-methyl-7-oxo-7,8-dihydropyrido[2,3-d]pyrimidin-2-yl)amino)pyridin-3-yl)piperazin-1-yl)-6-oxohexanamido)-N-(4,5-dimethylthiazol-2-yl)benzamide]	–	D (protein percentage degradation <30%)	< 30
CC(=O)c1c(C)c2cnc(Nc3ccc(N4CCN(C(=O)CCCCCC(=O)Nc5ccccc5C(=O)Nc5nc(C)c(C)s5)CC4)cn3)nc2n(C2CCCC2)c1=O [CPD-157, 2-(7-(4-(6-((6-Acetyl-8-cyclopentyl-5-methyl-7-oxo-7,8-dihydropyrido[2,3-d]pyrimidin-2-yl)amino)pyridin-3-yl)piperazin-1-yl)-7-oxoheptanamido)-N-(4,5-dimethylthiazol-2-yl)benzamide]	–	D (protein percentage degradation <30%)	< 30
CC(=O)c1c(C)c2cnc(Nc3ccc(N4CCN(C(=O)CC(=O)Nc5ccccc5C(=O)Nc5nc(C)c(C)s5)CC4)cn3)nc2n(C2CCCC2)c1=O [CPD-158, 2-(3-(4-(6-((6-Acetyl-8-cyclopentyl-5-methyl-7-oxo-7,8-dihydropyrido[2,3-d]pyrimidin-2-yl)amino)pyridin-3-yl)piperazin-1-yl)-3-oxopropanamido)-N-(4,5-dimethylthiazol-2-yl)benzamide]	–	D (protein percentage degradation <30%)	< 30
CC(=O)c1c(C)c2cnc(Nc3ccc(N4CCN(C(=O)CCCC(=O)Nc5ccccc5C(=O)Nc5nc(C)c(C)s5)CC4)cn3)nc2n(C2CCCC2)c1=O [CPD-159, 2-(5-(4-(6-((6-Acetyl-8-cyclopentyl-5-methyl-7-oxo-7,8-dihydropyrido[2,3-d]pyrimidin-2-yl)amino)pyridin-3-yl)piperazin-1-yl)-5-oxopentanamido)-N-(4,5-dimethylthiazol-2-yl)benzamide]	–	D (protein percentage degradation <30%)	30 to 50
CC(=O)c1c(C)c2cnc(Nc3ccc(N4CCN(C(=O)CCCCCCCC(=O)Nc5ccccc5C(=O)Nc5nc(C)c(C)s5)CC4)cn3)nc2n(C2CCCC2)c1=O [CPD-160, 2-(9-(4-(6-((6-Acetyl-8-cyclopentyl-5-methyl-7-oxo-7,8-dihydropyrido[2,3-d]pyrimidin-2-yl)amino)pyridin-3-yl)piperazin-1-yl)-9-oxononanamido)-N-(4,5-dimethylthiazol-2-yl)benzamide]	–	C (protein percentage degradation <50%, and >=30%)	50 to 80
CC(=O)c1c(C)c2cnc(Nc3ccc(N4CCN(C(=O)CCCCCCC(=O)Nc5ccccc5C(=O)Nc5nc(C)c(C)s5)CC4)cn3)nc2n(C2CCCC2)c1=O [CPD-161, 2-(8-(4-(6-((6-Acetyl-8-cyclopentyl-5-methyl-7-oxo-7,8-dihydropyrido[2,3-d]pyrimidin-2-yl)amino)pyridin-3-yl)piperazin-1-yl)-8-oxooctanamido)-N-(4,5-dimethylthiazol-2-yl)benzamide]	–	D (protein percentage degradation <30%)	< 30

Second part, led by results:

inhibition at 0.2 µM ([2]; Calu-1 cells, 200 nM, 16 hours) [%]	SMILES	CyclinD1 Degradation (200 nM) [1]	inhibition at 0.2 µM ([2]; Calu-1, 16 h) [%]
< 30	CC(=O)c1c(C)c2cnc(Nc3ccc(N4CCN(CC(=O)NCCOCCC(=O)Nc5ccccc5C(=O)Nc5nc(C)c(C)s5)CC4)cn3)nc2n(C2CCCC2)c1=O [CPD-147, 2-(3-(2-(2-(4-(6-((6-Acetyl-8-cyclopentyl-5-methyl-7-oxo-7,8-dihydropyrido[2,3-d]pyrimidin-2-yl)amino)pyridin-3-yl)piperazin-1-yl)acetamido)ethoxy)propanamido)-N-(4,5-dimethylthiazol-2-yl)benzamide]	D (protein percentage degradation <30%)	–
< 30	CCCCNc1ccc(NC(=O)CCOCCOCCNC(=O)CN2CCN(c3ccc(Nc4ncc5c(C)c(C(C)=O)c(=O)n(C6CCCC6)c5n4)nc3)CC2)c(C(=O)Nc2nc(C)c(C)s2)c1 [CPD-148, 2-(3-(2-(2-(2-(4-(6-((6-Acetyl-8-cyclopentyl-5-methyl-7-oxo-7,8-dihydropyrido[2,3-d]pyrimidin-2-yl)amino)pyridin-3-yl)piperazin-1-yl)acetamido)ethoxy)ethoxy)propanamido)-5-(butylamino)-N-(4,5-dimethylthiazol-2-yl)benzamide]	D (protein percentage degradation <30%)	–
> 80	CC(=O)c1c(C)c2cnc(Nc3ccc(N4CCN(CC(=O)NCCOCCOCCC(=O)Nc5cc(C)ccc5C(=O)Nc5nc(C)c(C)s5)CC4)cn3)nc2n(C2CCCC2)c1=O [CPD-149, 2-(3-(2-(2-(2-(4-(6-((6-Acetyl-8-cyclopentyl-5-methyl-7-oxo-7,8-dihydropyrido[2,3-d]pyrimidin-2-yl)amino)pyridin-3-yl)piperazin-1-yl)acetamido)ethoxy)ethoxy)propanamido)-N-(4,5-dimethylthiazol-2-yl)-4-methylbenzamide]	A (protein percentage degradation >=80%)	–
50 to 80	CNc1ccc(NC(=O)CCOCCOCCNC(=O)CN2CCN(c3ccc(Nc4ncc5c(C)c(C(C)=O)c(=O)n(C6CCCC6)c5n4)nc3)CC2)c(C(=O)Nc2nc(C)c(C)s2)c1 [CPD-150, 2-(3-(2-(2-(2-(4-(6-((6-Acetyl-8-cyclopentyl-5-methyl-7-oxo-7,8-dihydropyrido[2,3-d]pyrimidin-2-yl)amino)pyridin-3-yl)piperazin-1-yl)acetamido)ethoxy)ethoxy)propanamido)-N-(4,5-dimethylthiazol-2-yl)-5-(methylamino)benzamide]	A (protein percentage degradation >=80%)	–
50 to 80	CC(=O)c1c(C)c2cnc(Nc3ccc(N4CCN(CC(=O)NCCOCCOCCC(=O)Nc5ccc(N(C)C)cc5C(=O)Nc5nc(C)c(C)s5)CC4)cn3)nc2n(C2CCCC2)c1=O [CPD-151, 2-(3-(2-(2-(2-(4-(6-((6-Acetyl-8-cyclopentyl-5-methyl-7-oxo-7,8-dihydropyrido[2,3-d]pyrimidin-2-yl)amino)pyridin-3-yl)piperazin-1-yl)acetamido)ethoxy)ethoxy)propanamido)-5-(dimethylamino)-N-(4,5-dimethylthiazol-2-yl)benzamide]	C (protein percentage degradation <50%, and >=30%)	–
50 to 80	CC(=O)c1c(C)c2cnc(Nc3ccc(N4CCN(CC(=O)NCCOCCOCCC(=O)Nc5ccc(F)cc5C(=O)Nc5nc(C)c(C)s5)CC4)cn3)nc2n(C2CCCC2)c1=O [CPD-152, 2-(3-(2-(2-(2-(4-(6-((6-Acetyl-8-cyclopentyl-5-methyl-7-oxo-7,8-dihydropyrido[2,3-d]pyrimidin-2-yl)amino)pyridin-3-yl)piperazin-1-yl)acetamido)ethoxy)ethoxy)propanamido)-N-(4,5-dimethylthiazol-2-yl)-5-fluorobenzamide]	A (protein percentage degradation >=80%)	–
< 30	CC(=O)c1c(C)c2cnc(Nc3ccc(N4CCN(CC(=O)NCCOCCOCCC(=O)Nc5ccccc5CNc5nc(C)c(C)s5)CC4)cn3)nc2n(C2CCCC2)c1=O [CPD-154, 3-(2-(2-(2-(4-(6-((6-Acetyl-8-cyclopentyl-5-methyl-7-oxo-7,8-dihydropyrido[2,3-d]pyrimidin-2-yl)amino)pyridin-3-yl)piperazin-1-yl)acetamido)ethoxy)ethoxy)-N-(2-(((4,5-dimethylthiazol-2-yl)amino)methyl)phenyl)propanamide]	D (protein percentage degradation <30%)	–
50 to 80	CC(=O)c1c(C)c2cnc(Nc3ccc(N4CCN(CC(=O)NCCOCCOCCC(=O)Nc5cc(N(C)C)ccc5C(=O)Nc5nc(C)c(C)s5)CC4)cn3)nc2n(C2CCCC2)c1=O [CPD-155, 2-(3-(2-(2-(2-(4-(6-((6-Acetyl-8-cyclopentyl-5-methyl-7-oxo-7,8-dihydropyrido[2,3-d]pyrimidin-2-yl)amino)pyridin-3-yl)piperazin-1-yl)acetamido)ethoxy)ethoxy)propanamido)-4-(dimethylamino)-N-(4,5-dimethylthiazol-2-yl)benzamide]	A (protein percentage degradation >=80%)	–
